In patent publication US11242537B2, “Method for improving sensitivity of plant to gibberellin inhibitor and use thereof” (CHINA AGRICULTURAL UNIVERSITY, priority 2017, dated 2022):

How the values were obtained:
[1] = tested on: transgenic zmcps-ko line with the HRP, line No. 614; assay: Sensitivity of transgenic zmcps-ko line with the HRP to DPC, line No. 614; type: in vivo, maize; conditions: 500 ppm (5 mM) DPC spray
From the text: (§1) The GV3101-pSuper1300-HRP of Example 1 was transformed into the ZmCPSKO maize embryos of step 1.1 by using the Agrobacterium to infect the maize immature embryos, and positive transgenic maize with the HRP was obtained by screening, and the transgenic maize with the HRP contained the target gene HRP. The GV3101-pSuper1300-ZmCPS and GV3101-pSuper1300 were used as controls, and the ZmCPS control maize and empty vector control maize were obtained, respectively.
(§2) The WT and transgenic plants were sprayed with DPC during jointing stage to test their DPC sensitivity: the whole plant was sprayed with 500 ppm […] DPC when the maize was grown to 7 leaf expansion phase and 12 leaf expansion phase. Plant height and ear height were measured 2 weeks after treatment and after tasseling.

HRP::ga1-1 = assay: Effect of DPC on plant height of transgenic Arabidopsis thaliana (step 4.1), HRP::ga1-1; type: in vivo; conditions: for Plant height reduction rate / Plant height: HRP::ga1-1; for Plant height reduction rate: relative to 0 mg/L DPC-treated plant; for Plant height: cultured 12 days
Protocol: (§3) In the following examples, the growth conditions of Arabidopsis thaliana are: culturing in a growth chamber with a photoperiod of 16 h light/8 h dark, a light intensity of 60 μmol/m^2/s, a humidity of 60%-70%, and a temperature of 22° C.
(§4) The experiment was repeated three times, and the specific steps of each repeated experiment were as follows:
(§5) Thirty homozygous line plants of the HRP::ga1-1 of step 2 were randomly selected and randomly divided into three groups, ten plants in each group. On the 33rd day of sowing (the day of sowing was recorded as the first day of sowing), the plants of these three groups were treated as follows, respectively one group was sprayed with water (i.e., 0 mg/L DPC solution) and cultured for 12 days to obtain untreated HRP::ga1-1; one group was sprayed with 30 mg/L DPC solution and cultured for 12 days to obtain 30 mg/L DPC-treated HRP::ga1-1; the last group was sprayed with 500 mg/L aqueous DPC solution and cultured for 12 days to obtain 500 mg/L DPC-treated HRP::ga1-1.
(§6) The plant heights of the above Arabidopsis thaliana before the treatment (FIG. 1) and after different treatments (FIG. 2 and Table 2) were measured.

HRP::ga1-5 = assay: Effect of DPC on plant height (step 4.1), HRP::ga1-5; type: in vivo, Arabidopsis thaliana; conditions: for Plant height / Plant height reduction rate: HRP::ga1-5; for Plant height: 12 days; for Plant height reduction rate: relative to 0 mg/L
Protocol: as §3, §4, §5
According to the above method, the homozygous line plants of the HRP::ga1-1 were replaced with the homozygous line plants of the HRP::ga1-5, the homozygous line plants of the ZmCPS::ga1-1, the homozygous line plants of the ZmCPS::ga1-5, the homozygous line plants of the PsSuper1300::ga1-1 and the homozygous line plants of the PsSuper1300::ga1-5 respectively, the other steps were unchanged, and untreated HRP::ga1-5, 30 mg/L DPC-treated HRP::ga1-5, 500 mg/L DPC-treated HRP::ga1-5, untreated ZmCPS::ga1-1, 30 mg/L DPC-treated ZmCPS::ga1-1, 500 mg/L DPC-treated ZmCPS::ga1-1, untreated ZmCPS::ga1-5, 30 mg/L DPC-treated ZmCPS::ga1-5, 500 mg/L DPC-treated ZmCPS::ga1-5, untreated PsSuper1300::ga1-1, 30 mg/L DPC-treated PsSuper1300::ga1-1, 500 mg/L DPC-treated PsSuper1300::ga1-1, untreated PsSuper1300::ga1-5, 30 mg/L DPC-treated PsSuper1300::ga1-5 and 500 mg/L DPC-treated PsSuper1300::ga1-5 were obtained, respectively.
as §6

[2] = tested on: transgenic zmcps-ko line with the HRP, line No. 623; assay: Sensitivity of transgenic zmcps-ko line with the HRP to DPC, line No. 623; type: in vivo, maize; conditions: 500 ppm (5 mM) DPC spray
From the text: as §1, §2

ga1-5 = assay: Effect of DPC on plant height (step 4.1), mutant ga1-5; type: in vivo, Arabidopsis thaliana; conditions: for Plant height: 12 days; for Plant height reduction rate: relative to 0 mg/L
Protocol: as §3, §4
When the ga1-1 was cultured to the 33rd day of sowing (the day of sowing was recorded as the first day of sowing), 30 plants were taken and randomly divided into three groups, ten plants in each group and the plants of these three groups were treated as follows, respectively: one group was sprayed with 0 mg/L DPC solution and cultured for 12 days to obtain untreated ga1-1; one group was sprayed with 30 mg/L aqueous DPC solution and cultured for 12 days to obtain 30 mg/L DPC-treated ga1-1; the last group was sprayed with 500 mg/L DPC solution and cultured for 12 days to obtain 500 mg/L DPC-treated ga1-1.
According to the above method, the ga1-1 was replaced with the ga1-5, the other steps were unchanged, and untreated ga1-5, 30 mg/L DPC-treated ga1-5, and 500 mg/L DPC-treated ga1-5 were obtained, respectively.
as §6

B73 (WT) = assay: Sensitivity of wild type maize B73 to DPC; type: in vivo; conditions: 500 ppm (5 mM) DPC spray
Protocol: as §2

C[N+]1(C)CCCCC1.[Cl-] [DPC, 1,1-dimethylpiperidinium chloride]
Ear height [1]: 80.5 | Plant height at 2 weeks after treatment [1]: 133.2 | Plant height at tasseling stage [1]: 197.9 | Plant height of HRP::ga1-1 as multiple of correspondingly treated ZmCPS::ga1-1 (HRP::ga1-1; 30 mg/L DPC): 0.68 times | Plant height of HRP::ga1-1 as multiple of correspondingly treated ga1-1 (HRP::ga1-1; 30 mg/L DPC): 2.71 times | Plant height reduction rate of HRP::ga1-1 as multiple of that of ga1-1 (HRP::ga1-1; 30 mg/L DPC): 2.49 times | Plant height of HRP::ga1-1 as multiple of correspondingly treated ZmCPS::ga1-1 (HRP::ga1-1; 500 mg/L DPC): 0.41 times | Plant height of HRP::ga1-1 as multiple of correspondingly treated ga1-1 (HRP::ga1-1; 500 mg/L DPC): 1.71 times | Plant height reduction rate of HRP::ga1-1 as multiple of that of ga1-1 (HRP::ga1-1; 500 mg/L DPC): 3.47 times | Plant height reduction rate (HRP::ga1-1; 30 mg/L DPC): 33.92% | Plant height reduction rate (HRP::ga1-1; 500 mg/L DPC): 60.18% | Plant height (HRP::ga1-1; sprayed with 30 mg/L DPC on 33rd day of sowing): 11.2 ± 0.24 cm | Plant height (HRP::ga1-1; sprayed with 500 mg/L DPC on 33rd day of sowing): 6.75 ± 0.38 cm | Plant height of HRP::ga1-5 as multiple of correspondingly treated ZmCPS::ga1-5 (HRP::ga1-5; 30 mg/L DPC): 0.64 times | Plant height of HRP::ga1-5 as multiple of correspondingly treated ga1-5 (HRP::ga1-5; 30 mg/L DPC): 1.65 times | Plant height reduction rate of HRP::ga1-5 as multiple of that of ga1-5 (HRP::ga1-5; 30 mg/L DPC): 4.68 times | Plant height of HRP::ga1-5 as multiple of correspondingly treated ZmCPS::ga1-5 (HRP::ga1-5; 500 mg/L DPC): 0.38 times | Plant height of HRP::ga1-5 as multiple of correspondingly treated ga1-5 (HRP::ga1-5; 500 mg/L DPC): 1.00 times | Plant height reduction rate of HRP::ga1-5 as multiple of that of ga1-5 (HRP::ga1-5; 500 mg/L DPC): 6.66 times | Plant height (HRP::ga1-5; 30 mg/L DPC spray): 10.80 ± 0.43 cm | Plant height reduction rate (HRP::ga1-5; 30 mg/L DPC): 31.99% | Plant height (HRP::ga1-5; 500 mg/L DPC spray): 6.41 ± 0.18 cm | Plant height reduction rate (HRP::ga1-5; 500 mg/L DPC): 59.63% | Ear height [2]: 75.2 | Plant height at 2 weeks after treatment [2]: 133.5 | Plant height at tasseling stage [2]: 182.8 | Plant height (ga1-5; 30 mg/L DPC spray): 6.55 ± 0.10 cm | Plant height reduction rate (ga1-5; 30 mg/L DPC): 6.83% | Plant height (ga1-5; 500 mg/L DPC spray): 6.40 ± 0.12 cm | Plant height reduction rate (ga1-5; 500 mg/L DPC): 8.96% | Ear height (B73 (WT); B73 wild type): 91.3 | Plant height at 2 weeks after treatment (B73 (WT); B73 wild type): 151 | Plant height at tasseling stage (B73 (WT); B73 wild type): 207.5 | Sensitivity of the plant to DPC (in words) (B73 (WT); WT (B73)): insensitive
